{"source": "patent US20130039928A1", "about": "“COMPOSITIONS AND METHODS FOR REVERSING CORTICOSTEROID RESISTANCE OR TREATING RESPIRATORY INFECTIONS” (priority 2010, published 2013)", "key": {"HDAC2 [1]": {"tested_on": "HDAC2", "assay_type": "cell-based, human", "details": "COPD alveolar macrophages", "method": "For inducing corticosteroid resistance, PMs were exposed to cigarette smoke condensate (CSC, 100 μg/ml; Murty Pharmaceuticals, Lexington, Ky.) for 16 h. Exposure to S-nitrosoglutathione (GSNO, 10 μM) was limited to 4 h. […] For assessing corticosteroid responsiveness, macrophages were incubated with dexamethasone (1 μM, Sigma) for 1 h followed by LPS (100 ng/ml, Sigma) for additional 4 h.\nAll immunoblots were performed by using protocols as described previously (Barnes, P. J., N Engl J Med 343, 269-280 (2000)). Rabbit anti-HDAC2 antibody from Santa Cruz Biotechnology (Santa Cruz, Calif.) was used at 1:500 dilutions. Rabbit anti-5-nitroso-cysteine antibody from Alpha diagnostics was used at 1:500 dilutions. Rabbit anti-nitro-tyrosine antibody from Cell Signaling Technology, was used at 1:250 dilution. Rabbit anti-ubiquitin antibody from Santa Cruz Biotechnology (Santa Cruz, Calif.) was used at 1:1000 dilutions. Rabbit anti-GR antibody from Santa Cruz Biotechnology (Santa Cruz, Calif.) was used at a dilution of 1:1000. Rabbit anti-MMP9 antibody from Sigma Aldrich was used at 1:500 dilutions. Rabbit anti-acetyl-lysine antibody from Abcam was used at 1:750 dilutions. Rabbit anti-lamin-B1 from Santa Cruz Biotechnology (Santa Cruz, Calif.) was used at 1:1000 dilutions as a loading control. The Image J program was used for densitometry analyses.\nTotal RNA was extracted from the cells by lysis and specific binding to a silica membrance (Qiagen RNeasy kit, Qiagen, Valencia, Calif.), and qRT-PCR was performed by using primers and probe sets for human IL-8, NQO1, GCLM, and iNOS (Assay-on-Demand, Applied Biosystems, Foster City, Calif.). A real-time fluorescent PCR system (ABI 7000 Taqman system, Applied Biosystems) was used to perform these assays. β-actin was used as the normalization control."}, "HDAC2 [2]": {"tested_on": "HDAC2", "method": "Whether sulforaphane increase HDAC2 activity in lungs of cigarette smoke exposed mice was determined.\nMice (C57BL/6 strain, 8-10 weeks old) were used for the studies. Exposure to CS (1 month) was carried out as described previously (Malhotra, D., et al., Am J Respir Crit Care Med 178, 592-604 (2008)). Residential peritoneal macrophages (PMs) isolation was carried out as described previously (Singh, A., et al., PLoS Med 3, e420 (2006)). Alveolar macrophages from mouse were isolated from bronchoalveolar lavage (BAL) fluid (Crimi, E., et al., Free Radic Biol Med 40, 398-406 (2006)).\nHDAC activity was measured using a fluorescent derivative of ε-acetyl-lysine from Enzo life sciences (Farmingdale, N.Y.) according to the manufacturer's recommendations. HDAC2 was immunoprecipitated for analysis of enzymatic activity."}, "elastase": {"tested_on": "elastase", "details": "alveolar macrophages treated with or without sulforaphane"}, "HDAC2 [3]": {"tested_on": "HDAC2", "experiment": "Posttranslational modification of HDAC2 in alveolar macrophages (immunoblot, DAN, biotin-switch)", "assay_type": "cell-based, human", "method": "S-nitrosylation of proteins was analyzed by anti-SNO antibody, biotin switch assay, and or 2,3-diaminonapthalene (DAN) assay. […] Detail methodology is described in supplementary data.\nMacrophage cell or lung tissue extracts were prepared by using 100 μL of immunoprecipitation buffer (50 mM Tris-HCl, pH 8.0, 150 mM NaCl, 1.0% Triton X-100, 0.5% NP-40, 0.1% SDS, 0.5% deoxycholate, and complete protease inhibitor cocktail) from Roche (Morristown, N.J.). The lysis mixture was incubated on ice for 15 minutes and microcentrifuged for 10 minutes at 4° C. Extracts were precleared with 20 μL protein A/G sepharose beads (a 50:50 mix) from Thermo scientific (Rockford, Ill.) and 2 μg of normal IgG. After microcentrifugation, 20 μL of protein A/G sepharose conjugated with 5 μg of antibody was used to precipitate HDAC2 (Santa Cruz Biotechnology, Santa Cruz, Calif.) overnight at 4° C. with rotation. The immune complexes were pelleted with gentle centrifugation, washed twice with 1 mL of immunoprecipitation buffer, and divided equally for the final wash for the activity assay and immunoblotting. For the HDAC assay, immunoprecipitates were resuspended in the activity assay buffer (50 mM TrisHCl, pH 8.0; 10% glycerol; 1 mM dithiothreitol; 0.1 mM EDTA, complete protease inhibitor cocktail). For HDAC2-specific western blotting, immune complexes were washed three times with the immunoprecipitation buffer and finally resuspended in Laemmli buffer for the SDS-PAGE.\nFor HDAC2-specific nitrosylation detection, cells were lysed in buffer (50 mM Tris-HCl, pH 8.0, 150 mM NaCl, 1% Nonidet P-40, 0.5% deoxycholic acid, 0.1% SDS). […] The pellets were resuspended in 500 μL of PBS.\nThis assay was performed in the dark.\nThe Image J program was used for densitometry analyses."}, "[4]": {"tested_on": "nontypeable Haemophilus influenza (NTHI)", "details": "wild-type mice after 6 months of chronic exposure to cigarette smoke", "method": "C57BL/6J mice were housed under controlled conditions for temperature and humidity, using a 12-hour light/dark cycle. At 8 weeks of age, mice were exposed to CS for (2.5 h/day for 5 days/week) for 1 week or 6 months using a machine that produces cigarette smoke (TE-10, Teague Enterprises) and reference cigarettes (2R4F) with a total suspended particle concentration of 250 mg/m^3 as previously described (T. E. Sussan et al., Proc Natl Acad Sci USA, (Dec. 22, 2008)). Following exposure to CS, mice were inoculated with PA or NTHI at a dose of 10^3 CFU in 50 μl of PBS intranasally. For sulforaphane administration (0.5 mg/mouse of R, S-sulforaphane in PBS), a nebulizer (Aerogen, Inc., Galway, Ireland) designed specifically for small animals was used.\nBAL fluid analysis and cell counts with differential staining were carried out as described previously (T. Rangasamy et al., J Clin Invest 114, 1248 (November, 2004)). For analyzing bacterial colonization in lungs, 100 μl of BAL fluid were diluted serially in sterile 0.9% NaCl and aseptically plated and cultured on appropriate (blood [PA] or chocolate [NTHI]) agar plates. After 24 h, the number of CFU was counted."}, "[5]": {"details": "GSNO-exposed alveolar macrophages"}, "[6]": {"details": "nuclear immunopurified HDAC2, compared with vehicle"}}, "note": "Entries after “also recorded” stand apart in the source; their conditions may differ."}
{"smiles": "C[S+]([O-])CCCCN=C=S", "note": "(centres unmarked) [sulforaphane]", "values": [{"measurement": "HDAC2 mRNA levels", "setting": "HDAC2 [1]", "result": "without altering the levels of HDAC2 mRNA; also recorded: no effect on HDAC2 mRNA expression"}, {"measurement": "HDAC2 protein levels", "setting": "HDAC2 [1]", "result": "up-regulated HDAC2 protein levels"}, {"measurement": "levels of SNO-HDAC2 in lungs", "setting": "HDAC2 [2]; CS-exposed mice", "result": "reduced the levels of SNO-HDAC2"}, {"measurement": "GSH levels in lungs", "setting": "HDAC2 [2]; cigarette smoke-exposed mice", "result": "increased GSH levels"}, {"measurement": "HDAC2 enzymatic activity in lungs", "setting": "HDAC2 [2]; cigarette smoke-exposed mice", "result": "significant increase"}, {"measurement": "HDAC2 protein in lungs", "setting": "HDAC2 [2]; cigarette smoke-exposed mice", "result": "significant increase"}, {"measurement": "total HDAC enzymatic activity in lungs", "setting": "HDAC2 [2]; cigarette smoke-exposed mice", "result": "significant increase"}, {"measurement": "elastase activity in cell free media", "setting": "elastase", "result": "inhibition of elastase activity"}, {"measurement": "S-nitrosylation of HDAC2", "setting": "HDAC2 [3]; 2,3-diaminonaphthalene and biotin-switch assays", "result": "reduced"}, {"measurement": "levels of NO-Tyr HDAC2", "setting": "HDAC2 [3]; [5]", "result": "decreased the levels of both NO-Tyr HDAC2 and SNO-HDAC2"}, {"measurement": "levels of SNO-HDAC2", "setting": "HDAC2 [3]; [5]", "result": "decreased the levels of both NO-Tyr HDAC2 and SNO-HDAC2"}, {"measurement": "ability to reduce the levels of SNOHDAC2 protein", "setting": "HDAC2 [3]; GSNO-exposed alveolar macrophages in the presence of buthionine sulfoximine", "result": "ablated"}, {"measurement": "S-nitrosylation of HDAC2 (SNO-HDAC2)", "setting": "HDAC2 [3]; anti-SNO antibody immunoblot", "result": "significantly reduced"}, {"measurement": "tyrosine nitration of HDAC2 (nitrotyrosine-HDAC2)", "setting": "HDAC2 [3]; immunopurified HDAC2 from alveolar macrophages, compared with vehicle", "result": "Significant reductions"}, {"measurement": "serine phosphorylation of HDAC2", "setting": "HDAC2 [3]; [6]", "result": "Significant reductions"}, {"measurement": "ubiquitination of HDAC2", "setting": "HDAC2 [3]; [6]", "result": "Significant reductions"}, {"measurement": "bacterial colonization (NTHI) in the lungs", "setting": "[4]", "result": "inhibited bacterial colonization"}]}
